Data on 5 compounds can be found in patent US9161945B2, “4-isopropyl-6-methoxyphenyl glucitol compound” (TAISHO PHARMACEUTICAL CO., LTD., priority 2010, dated 2015).

Marks after values point to notes of the source that are not given here.

The subject of data set [1] is streptozotocin diabetic model rats. Description: Oral glucose tolerance test (hypoglycemic effect) in streptozotocin diabetic model rats. Format: in vivo, SD/IGS rats. To be noted: for STZ rats OGTT % inhibition ΔAUC0-1h (mg/dl) @ 1 mg/kg/po: STZ-induced diabetic rats versus vehicle control, oral dose 1 mg/kg, glucose 2 g/kg. On the procedure:
(§1) Test Example 3 Confirmation study of hypoglycemic effect in streptozotocin diabetic model rats
(§2) (1) Preparation of Diabetic Model Rats
(§3) SD/IGS rats at 7 weeks of age (male, Charles River Laboratories Japan Inc.) were fasted for about 16 hours and then injected with 50 mg/kg streptozotocin (STZ) via the caudal vein under ether anesthesia to prepare diabetic model rats. Similarly, another group of SD/IGS rats at 7 weeks of age was injected with 1.25 mmol/L citric acid in physiological saline (1 mL/kg) via the caudal vein under ether anesthesia to prepare normal control rats. At one week after injection of STZ or 1.25 mmol/L citric acid in physiological saline, the rats (8 weeks old) were provided for an oral glucose tolerance test.
(§4) (2) Oral Glucose Tolerance Test
(§5) […] At 5 minutes after drug administration, a glucose solution (2 g/kg) was orally administered to each rat, and the blood was collected at a total of 5 time points: before drug administration (0 time), and at 0.25, 0.5, 1 and 2 hours after the oral administration.
(§6) Blood was collected from the caudal veins of the rats under ether anesthesia with the use of a heparin-coated blood collecting tube and centrifuged, whereafter blood plasma was separated. Plasma glucose concentrations were quantified by measurement with a Glucose CII-Test Wako (Wako Pure Chemical Industries, Ltd., Japan). To determine the intensity of hypoglycemic effect, the blood glucose level before drug administration was subtracted from each blood glucose level measured until one hour after oral administration in each drug group, and the resulting values were analyzed by the trapezoidal method to calculate an increment in the area under the curve for glucose (ΔAUC), which was expressed as a decrease relative to ΔAUC of the control group.

Data set [2] in a line: Renal concentrations until one week after single oral administration. To be noted: male Sprague-Dawley rats. It counts as in vivo, SD/IGS rats. On the procedure:
(1) Changes in Renal Concentrations of Compounds 4, 10, 11 and 33 Disclosed in WO2007/136116 Until One Week After Oral Administration
SD/IGS rats at 7 weeks of age (male, non-fasting, Charles River Laboratories Japan Inc.) were orally administered with compound 4, 10 or 33 (1 mg/kg each) or compound 11 (0.3 mg/kg) prepared in a 0.5% aqueous solution of CMC. At 24, 72 and 168 hours after drug administration, the rats were exsanguinated via the postcaval vein under ether anesthesia, and their kidneys were excised after they were confirmed to be euthanized. After the tissue surface was washed with physiological saline, each tissue was measured for its weight and homogenized in 4 volumes of purified water under ice cooling. To each homogenate, an acetonitrile/methanol solution containing an internal standard substance was added to remove proteins, and the supernatant was then subjected to LC-MS/MS (Applied Biosystems API3000). Drug-derived ions generated by electrospray ionization in positive ion mode were detected by selective reaction monitoring. The peak area of the resulting extracted ion chromatogram was analyzed by the internal standard method to calculate the drug concentration in the homogenate.
As the internal standard material for compounds 10 and 33, (1S)-1,5-anhydro-1-[5-(4-ethoxybenzyl)-2-methoxy-4-methylphenyl]-1-thio-D-glucitol,ethyl-D5 was used. As the internal standard materials for compounds 4 and 11, compound 11 and deuterium-labeled compound 11 (trishydroxymethyl-D6; —C(CD2OH)3), respectively, were used.

The target in another data set is human SGLT1 (Homo sapiens (Human), UniProt P13866). Description: Inhibition test of sodium-dependent glucose uptake in CHO-K1 cells stably expressing human SGLT1. To be noted: [14C]methyl α-D-glucopyranoside uptake, 37° C., 30 minutes, read-out: IC50 for hSGLT1. It counts as cell-based. As for the experimental part:
(1) Creation of CHO-K1 Cells Stably Expressing Human SGLT1
A plasmid vector expressing human SGLT1 protein was transfected into CHO-K1 cells using Lipofectamine 2000 (Invitrogen). The cells were cultured in the presence of 500 μg/mL geneticin to select resistant strains, followed by screening in the system shown below using sugar uptake capacity as an indicator to obtain SGLT1-expressing cells.
(§7) (3) Inhibition Test of Sodium-Dependent Glucose Uptake in Stable Expression Cells
(§8) The stably expressing cells prepared above were used in the following test.
(§9) Pretreatment buffer (140 mM choline chloride, 2 mM KCl, 1 mM CaCl2, 1 mM MgCl2, 10 mM HEPES/5 mM Tris, pH 7.4) was added to the stably expressing cells, followed by incubation for 20 minutes. The pretreatment buffer was removed and replaced by uptake buffer containing a test compound (1 mM methyl α-D-glucopyranoside (containing [^14C]methyl α-D-glucopyranoside), 145 mM NaCl, 2 mM KCl, 1 mM CaCl2, 1 mM MgCl2, 10 mM HEPES/5 mM Tris, pH 7.4). Uptake reaction was performed at 37° C. for 30 minutes (SGLT1) or 60 minutes (SGLT2). […] A liquid scintillator (Perkin Elmer) was added and mixed well, followed by measurement of radioactivity using a β-ray analyzer. […]

For another data set, the target named is human SGLT2 (Homo sapiens (Human), UniProt P31639). The data set is described as follows: Inhibition test of sodium-dependent glucose uptake in CHO-K1 cells stably expressing human SGLT2. Format: cell-based. The following applies: [14C]methyl α-D-glucopyranoside uptake, 37° C., 60 minutes, read-out: IC50 for hSGLT2. On the procedure: (2) Creation of CHO-K1 Cells Stably Expressing Human SGLT2
Sequence of human SGLT2 (P31639 whole entry): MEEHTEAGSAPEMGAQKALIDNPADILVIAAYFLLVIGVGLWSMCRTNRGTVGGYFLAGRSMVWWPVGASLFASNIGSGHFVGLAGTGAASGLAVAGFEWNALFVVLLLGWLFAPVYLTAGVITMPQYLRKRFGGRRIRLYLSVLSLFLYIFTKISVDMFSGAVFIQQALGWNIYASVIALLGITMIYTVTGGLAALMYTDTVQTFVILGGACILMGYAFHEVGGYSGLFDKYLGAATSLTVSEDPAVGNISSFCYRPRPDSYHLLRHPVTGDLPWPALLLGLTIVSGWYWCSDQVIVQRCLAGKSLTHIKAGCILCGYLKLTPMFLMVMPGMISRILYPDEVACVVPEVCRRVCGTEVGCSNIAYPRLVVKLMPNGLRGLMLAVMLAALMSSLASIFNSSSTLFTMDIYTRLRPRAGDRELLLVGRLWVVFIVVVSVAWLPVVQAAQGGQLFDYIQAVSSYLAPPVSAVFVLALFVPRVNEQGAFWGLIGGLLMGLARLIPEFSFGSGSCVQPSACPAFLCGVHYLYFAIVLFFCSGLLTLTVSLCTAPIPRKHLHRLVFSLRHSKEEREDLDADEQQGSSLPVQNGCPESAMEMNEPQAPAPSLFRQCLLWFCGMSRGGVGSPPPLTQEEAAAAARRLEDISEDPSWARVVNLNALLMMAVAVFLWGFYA
A plasmid vector expressing human SGLT2 protein was transfected into CHO-K1 cells using Lipofectamine LTX (Invitrogen). The cells were cultured in the presence of 1000 μg/mL geneticin to select resistant strains, followed by screening in the system shown below using sugar uptake capacity as an indicator to obtain SGLT2-expressing cells.
as §7, §8, §9

A short description of data set [3]: Renal concentrations after repeated oral administration for 3 days. It counts as in vivo, SD/IGS rats. On the procedure: (2) Renal Concentrations of the Compound (I) of the Present Invention After Repeated Oral Administration for 3 Days
SD/IGS rats at 7 weeks of age (male, non-fasting, Charles River Laboratories Japan Inc.) were orally administered once a day for 3 consecutive days with the compound (I) (3 mg/kg) prepared in a 0.5% aqueous solution of CMC. At 48 hours after the final drug administration, the rats were exsanguinated via the postcaval vein under isoflurane anesthesia, and their kidneys were excised after they were confirmed to be euthanized. After the tissue surface was washed with physiological saline, each tissue was measured for its weight and homogenized in 4 volumes of purified water under ice cooling. The drug concentration in each homogenate was determined in the same manner as shown in Test Example 2(1) by LC-MS/MS using compound 11 as an internal standard substance.

Data set [4] in a line: Oral glucose tolerance test (hypoglycemic effect) in streptozotocin diabetic model rats. Format: in vivo, SD/IGS rats. The following applies: OGTT using Sprague-Dawley rats, not STZ rats; oral dose 1 mg/kg. On the procedure:
as §1, §2, §3, §4, §5, §6

Sequence of human SGLT1 (P13866 whole entry): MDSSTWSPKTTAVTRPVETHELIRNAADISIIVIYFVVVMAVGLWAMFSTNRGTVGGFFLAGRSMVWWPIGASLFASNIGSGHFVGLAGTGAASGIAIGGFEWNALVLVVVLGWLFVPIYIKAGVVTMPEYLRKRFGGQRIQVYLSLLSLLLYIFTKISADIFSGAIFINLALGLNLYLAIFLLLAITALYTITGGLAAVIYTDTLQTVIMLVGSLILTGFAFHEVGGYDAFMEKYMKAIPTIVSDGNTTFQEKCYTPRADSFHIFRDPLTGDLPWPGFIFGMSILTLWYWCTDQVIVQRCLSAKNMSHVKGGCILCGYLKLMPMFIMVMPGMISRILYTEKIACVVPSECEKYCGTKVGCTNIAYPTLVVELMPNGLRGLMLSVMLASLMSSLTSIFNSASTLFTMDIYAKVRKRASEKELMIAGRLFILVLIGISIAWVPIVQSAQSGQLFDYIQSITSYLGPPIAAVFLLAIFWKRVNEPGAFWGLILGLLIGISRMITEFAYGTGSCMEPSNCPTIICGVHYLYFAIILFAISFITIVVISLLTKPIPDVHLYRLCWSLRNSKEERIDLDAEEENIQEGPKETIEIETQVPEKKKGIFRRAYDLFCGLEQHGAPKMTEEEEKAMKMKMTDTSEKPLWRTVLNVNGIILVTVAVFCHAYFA

On to `Cc1cc(O)c([C@@H]2O[C@H](CO)[C@@H](O)[C@H](O)[C@H]2O)cc1Cc1ccc(CCNC(=O)NC(CO)(CO)CO)cc1` [compound 11], for which, in data set [1], the “STZ rats OGTT % inhibition ΔAUC0-1h (mg/dl) @ 1 mg/kg/po” value is 68%. For the same compound, in data set [2] (0.3 mg/kg po (footnote *), 1 day, mean ± S.D.), the “Concentration of compounds in kidney after single oral administration, After 1 day” value (“Concentration of compounds … After 1 day” below) is 63.5 ± 20.1* ng/g. Besides, the “Concentration of compounds in kidney after single oral administration, After 3 days” value in data set [2] (0.3 mg/kg po (footnote *), 3 days, mean ± S.D.) is listed as 67.3 ± 3.15* ng/g. The “Concentration of compounds in kidney after single oral administration, After 7 days” value (“Concentration of compounds … After 7 days” below) in data set [2] (0.3 mg/kg po (footnote *), 7 days, mean ± S.D.) is listed as 48.7 ± 18.3* ng/g.
One may read the IC50 as the concentration needed to halve the response being measured. For the compound `COc1cc(C(C)C)c(Cc2ccc(/C=C/C(C)(C)C(=O)NC(C)(C)C(N)=O)cc2C)cc1[C@@H]1O[C@H](CO)[C@@H](O)[C@H](O)[C@H]1O` [Compound (I)], in data set [1] (glucose tolerance test, compound of the invention), the “hypoglycemic action (in words)” value is given as “potent hypoglycemic action”. For the same compound, the half-maximal inhibitory concentration (IC50) came out at 65 nM on human SGLT1 and 554 nM at human SGLT2. Further, in data set [3] (3 mg/kg for 3 consecutive days, at subsequent day 2), the “remaining in the kidney (in words)” value was “did not remain in the kidney”. Further, in data set [3] (3 mg/kg po once a day for 3 days, male Sprague-Dawley rats, 48 hours after final administration, limit of detection 5 ng/g), the “Concentration of compounds in kidney after 3 days continuous oral administration, After 2 days” value is on record as “ND^# (ND (not determined) means limit of detection (5 ng/g).)”.
In the case of `Cc1cc(O)c([C@@H]2O[C@H](CO)[C@@H](O)[C@H](O)[C@H]2O)cc1Cc1ccc(CCNC(=O)NC2CCN(Cc3ccccc3)CC2)cc1` [compound 33], the “OGTT % inhibition ΔAUC0-1h (mg/dl) @ 1 mg/kg/po” value in data set [4] is on record as 81^# %. Besides, the “Concentration of compounds … After 1 day” value in data set [2] (1 mg/kg po, 1 day (24 hours)) turned out to be 29.8 ± 6.79 ng/g. Besides, the “Concentration of compounds in kidney after single oral administration, After 3 days” value in data set [2] (1 mg/kg po, 3 days (72 hours)) was found to be 25.5 ± 8.68 ng/g. The “Concentration of compounds … After 7 days” value in data set [2] (1 mg/kg po, 7 days (168 hours)) stood at 16.2 ± 3.11 ng/g.
As for `Cc1cc(O)c([C@@H]2O[C@H](CO)[C@@H](O)[C@H](O)[C@H]2O)cc1Cc1ccc(CCCC(=O)NC(C)(C)C(N)=O)cc1` [compound 4], in data set [1], the “STZ rats OGTT % inhibition ΔAUC0-1h (mg/dl) @ 1 mg/kg/po” value is reported as 51%. The “Concentration of compounds … After 1 day” value in data set [2] (1 mg/kg po, 1 day (24 hours)) was 68.4 ± 7.49 ng/g. In addition, the “Concentration of compounds in kidney after single oral administration, After 3 days” value in data set [2] (1 mg/kg po, 3 days (72 hours)) is reported as 85.5 ± 23.1 ng/g. In data set [2] (1 mg/kg po, 7 days (168 hours)), the “Concentration of compounds … After 7 days” value was determined as 76.3 ± 15.5 ng/g.
Taken in the same sequence, the figures for `Cc1cc(O)c([C@@H]2O[C@H](CO)[C@@H](O)[C@H](O)[C@H]2O)cc1Cc1ccc(CCNC(=O)NC(C)(C)CO)cc1` [compound 10] were 69%, 167 ± 36.3 ng/g, 124 ± 12.2 ng/g and 53.8 ± 7.6 ng/g.
